Measured values published in patent publication US10174013B2, “Benzimidazole derivatives as kinase inhibitors” (SELVITA S.A., priority 2012, dated 2019).
Where a name gives a salt, the structure may show the parent alone.

Experiments:
MOLM16 xenograft = MOLM16 xenograft in immunocompromised mice; assay type: in vivo; conditions: 100 mg/Kg QD
Text: Several compounds of the present invention have been studied in a xenograft in mice, an in vivo tumor transplantation model used to investigate the factors involved in malignant transformation, invasion and metastasis, as well as to examine response to therapy. For the purpose of acceptance of donor leukemic cells (MV4-11 or MOLM16 cells), immunocompromised mice were used, namely particularly severely compromised immunodeficient mice (NOD/scid, SCID/beige). When tumors developed size of approx. 50-200 mm^3, the compounds as indicated below in Tables 3 and 3a were administered orally every day for 2-3 weeks, in once a day (QD) or twice a day (BID) schedule. During the course of the experiment, the mice were monitored and the following two parameters were measured: the tumor growth inhibition (TGI) factor as a measure of therapeutic efficacy and the body weight change (ΔBW) factor as a measure of possible compound toxicity. The results are depicted in Tables 3 and 3a.
Additionally, compound 2A, together with other examples was tested in MOLM16 cells xenografted into immunocompromised mice.

FLT3(ITD) = FLT3(ITD) (Homo sapiens, UniProt P36888, ITD); assay: Binding to FLT3(ITD) mutant (DiscoveRx)
Description: (§1) Selected compounds were also tested for their binding properties against FLT3 kinase mutants using suitable in vitro assays (performed according to standard assays at DiscoveRx Corporation). The compounds show strong binding to the main oncogenic mutants of the FLT3 kinase, see Table 1B.

HEL-92 = assay: Combination study with anti-cancer agents, cell viability, HEL-92; conditions: for Effect of combination: 72 hours
Description: (§2) After this incubation, a cell viability assay was carried out according to the Manufacturer's instructions (CellTiter 96®AQueous Non-Radioactive Cell Proliferation Assay, Promega). The results were expressed as percentage of viable cells upon treatment with the individual drugs or the combination compared to the vehicle (DMSO) treated cells.

U-937 = assay: Combination study with anti-cancer agents, cell viability, U-937; conditions: for Effect of combination: 72 hours
Description: as §2

FLT3(D835H) = FLT3(D835H) (Homo sapiens (Human), UniProt P36888, D835H); assay: Binding to FLT3(D835H) mutant (DiscoveRx)
Description: as §1

PC3 = assay: Combination study with anti-cancer agents, cell viability, PC3; conditions: for Effect of combination: 72 hours
Description: as §2

FLT3(D835Y) = FLT3(D835Y) (Homo sapiens (Human), UniProt P36888, D835Y); assay: Binding to FLT3(D835Y) mutant (DiscoveRx)
Description: as §1

FLT3wt = FLT3wt (Homo sapiens (Human), UniProt P36888); assay: Binding to FLT3 wildtype (DiscoveRx)
[1] = tested on: Pim kinase biomarkers in MV4-11 cells; assay: Pim-kinase biomarkers in MV4-11 cells; assay type: cell-based, Human; conditions: 0.25-5 μM, 4 and 24 h
Description: The efficacy of compounds 1A and 2A on Pim kinase-inhibition was tested in MV4-11 cells (see above). Cells were treated with each compound at concentrations of 0.25, 0.5, 1, 2.5 and 5 μM for 4 and 24 h. The positive control Ref A (the commercially available inhibitor SGI-1776 [obtained from Selleck Bio]) was used at a concentration of 5 μM. DMSO (Dimethyl sulfoxide) was used as a negative control. The levels of the following classical Pim-1 kinase biomarkers were assessed: c-Myc, phospho-4EBP1 (Ser65, Thr37&46) and phosphorylated S6 (Ser235). […] Also, the levels of pro-apoptotic and pro-survival biomarkers were assessed. First, induction of apoptosis, recognizable as an appearance and increased expression of cleaved form of the PARP protein, was observed, both at 4 and 24 hours after compound stimulation at high concentrations. […] Levels of tubulin were assessed as a reference loading control.
The efficacy of compound 1BI on Pim kinase-inhibition was tested in MV4-11 cells. The cells were treated with compound 1BI at concentrations of 0.25, 0.5, 1, 2.5 and 5 μM for 4 and 24 h. The positive controls Ref. A (SGI-1776, see above) and Ref. B (the commercially available inhibitor Sunitinib [obtained from Ark Pharm]) were used at 5 μM concentration. DMSO (Dimethyl sulfoxide) was used as a negative control. The levels of the following classical Pim-1 kinase biomarkers were assessed: c-myc, phospho-4EBP1 (Ser65, Thr37&46) and phosphorylated S6 (Ser235/236). […] The levels of pro-apoptotic and pro-survival biomarkers were also assessed. […] Levels of tubulin were assessed as a reference loading control.

Mino = assay: Combination study with anti-cancer agents, cell viability, Mino
Description: as §2

[2] = tested on: Pim kinase biomarkers in MOLM16 cells; assay: Pim-kinase biomarkers in MOLM16 cells; assay type: cell-based, Human; conditions: 0.1-2.5 μM, 4 and 24 h
Description: The efficacy of compound 1BI on Pim kinase-inhibition was also tested in MOLM16 cells (an acute myeloid leukemia cell line). The cells were treated with compound 1BI at concentrations of 0.1, 0.25, 0.5, 1 and 2.5 μM for 4 and 24 h. The positive controls Ref. A (SGI-1776, see above) and Ref. B (Sunitinib, see above) were used at 5 μM concentration. DMSO (Dimethyl sulfoxide) was used as a negative control. The levels of the following classical Pim-1 kinase biomarkers were assessed: c-myc, phospho-4EBP1 (Scr65, Thr37&46) and phosphorylated S6 (Scr235/236). […] The levels of a pro-apoptotic biomarker were assessed; induction of apoptosis, presented as an appearance and increased expression of cleaved form of PARP protein, was observed. Levels of tubulin were assessed as a reference loading control.

MOLM-16 = assay: Combination study with anti-cancer agents, cell viability, MOLM-16; conditions: for Effect of combination: MOLM-16 (Acute myeloid leukemia), 72 hours
Description: as §2

[3] = single agent, used as fixed concentration in combination study

With CC(C)n1c(N2CCNCC2)nc2c([N+](=O)[O-])c(Br)c(Br)cc21 [Example 2A, 5,6-dibromo-4-nitro-2-(piperazin-1-yl)-1-(propan-2-yl)-1H-1,3-benzodiazole hydrochloride] the “ΔBW (body weight change)” value (MOLM16 xenograft) was −8.6%, the “TGI (tumor growth inhibition)” value (MOLM16 xenograft; hydrochloride) was greater than 99% and the Kd (FLT3(ITD)) was 18 nM.

In the case of CCn1c(N2CCNCC2)nc2c([N+](=O)[O-])c(Br)c(Br)cc21 [Example 1A, 5,6-dibromo-1-ethyl-4-nitro-2-(piperazin-1-yl)-1H-1,3-benzodiazole hydrochloride], the “ED50 value in HEL-92” value (HEL-92; [3]) is reported as 5460 nM, the Effect of combination (HEL-92; with CP690550, HEL92 (Erythroleukemia)) is reported as “Synergistic” and the Effect of combination (HEL-92; with Cyt387, HEL92 (Erythroleukemia)) is reported as “Synergistic”. For the same compound, the Effect of combination (HEL-92; with Ruxolitinib, HEL92 (Erythroleukemia)) was “Synergistic/”, the “ED50 value in U-937” value (U-937; [3]) was 6640 nM and the Effect of combination (U-937; with ABT737, U937 (Histiocytic lymphoma)) was “Synergistic”. For the same compound, the Effect of combination (U-937; with Obatoclax, U937 (Histiocytic lymphoma)) was “Synergistic”, the Kd (FLT3(D835H)) was 120 nM and the “ED50 value in PC3” value (PC3; [3]) was 2910 nM. The Effect of combination (PC3; with CAL-101, PC3 (Prostate cancer)) was “Synergistic”, the Effect of combination (PC3; with GDC-0941, PC3 (Prostate cancer)) was “Synergistic/” and the Effect of combination (PC3; with Rapamycin, PC3 (Prostate cancer)) was “Synergistic”. For the same compound, the Effect of combination (PC3; with Wortmannin, PC3 (Prostate cancer)) was “Synergistic”, the Kd (FLT3(D835Y)) was 46 nM and the Kd (FLT3wt) was 400 nM. The “Mcl-1 pro-survival protein level” value [1] was “dosed-dependent protein down-regulation”, the “induction of apoptosis (cleaved form of PARP protein)” value (from here on “induction of apoptosis”) [1] was “observed” and the “levels of c-myc protein” value [1] was “downregulated”. The “levels of phosphorylated 4EBP1 (Ser65, Thr37&46)” value [1] was “downregulated”, the “levels of phosphorylated S6” value [1] was “downregulated” and the “levels of phosphorylated p44/42 (Erk1/2), Flt3 biomarker” value [1] was “downregulated”. The “ED50 value in Mino” value (Mino; [3]) was 1700 nM, the Effect of combination (Mino; with PD0332991, Mino (Mantle cell lymphoma), 72 hours) was “Synergistic” and the Kd (FLT3(ITD)) was 74 nM.

For CC(C)n1c(N2CC[C@@H](N)C2)nc2c(C#N)c(Br)c(Br)cc21 [Example 1BI], the “induction of apoptosis” value [2] was “observed”, the “levels of c-myc protein” value [2] was “downregulated” and the “levels of phosphorylated 4EBP1 (Ser65 and Thr37/46)” value [2] was “downregulated”. The “levels of phosphorylated S6” value [2] was “diminished completely”, the “Mcl-1 pro-survival protein level” value [1] was “dosed-dependent protein down-regulation” and the “induction of apoptosis” value [1] was “observed in the highest concentration at 4 hours”. The “levels of c-myc protein” value [1] was “down-regulated”, the “levels of phosphorylated 4EBP1 (Ser65, Thr37&46)” value [1] was “down-regulated” and the “levels of phosphorylated S6” value [1] was “diminished almost completely”. The “levels of phosphorylated p44/42 (Erk1/2), Flt3 biomarker” value [1] was “downregulated”.

With CC(C)n1c(C2CCNCC2)nc2c([N+](=O)[O-])c(Br)c(Br)cc21 [Example 26A, 5,6-dibromo-4-nitro-2-(piperidin-4-yl)-1-(propan-2-yl)-1H-1,3-benzodiazole] the “ED50 value in MOLM-16” value (MOLM-16; [3]) was 400 nM, the Effect of combination (MOLM-16; with C (Cytarabine)) was “Synergistic” and the Effect of combination (MOLM-16; with V (Vosaroxin)) was “Synergistic”.
